Earlier results in patent publication US20230354819A1 (priority 2020, published 2023).
Bridge positions count the residues as written; N and C are the ends. Square brackets hold non-standard residues; d marks the D form. Peptide text beside a SMILES is read from it. * marks the point of attachment. ξ: configuration not given here. Pentadecanoyl(3ξ-OH,15-Gua) = N=C(N)NCCCCCCCCCCCCC(O)CC(=O)*; d(aThr) = C[C@@H](O)[C@@H](N)C(=O)O

Tested on: cultured parsley cells
Details: WO 2006/016558

Structure (SMILES): CC(C)[C@@H]1NC(=O)[C@@H](C(C)C)NC(=O)[C@@H](NC(=O)CC(O)CCCCCCCCCCCCN=C(N)N)C(C)OC(=O)[C@@H](C)NC(=O)[C@@H](CCC(N)=O)NC(=O)[C@@H]([C@H](C)O)NC1=O (stereo in doubt) [fusaricidin B]
- induction of resistance reactions: induce resistance reactions

Structure (SMILES): CC(C)[C@@H]1NC(=O)[C@@H](C(C)C)NC(=O)[C@@H](NC(=O)CC(O)CCCCCCCCCCCCN=C(N)N)[C@@H](C)OC(=O)[C@@H](C)NC(=O)[C@@H](CC(N)=O)NC(=O)[C@@H]([C@@H](C)O)NC1=O (some centres unmarked) [fusaricidin A] ({Pentadecanoyl(3ξ-OH,15-Gua)}-T[dV]V[d(aThr)][dN][dA]; ester 1-C)
- induction of resistance reactions: induce resistance reactions
